The values that follow come from patent US6720341B2, “Preventives/remedies for kidney diseases” (Mitsubishi Pharma Corporation, priority 2000, dated 2004).

In the experiment the test system is renal interstitial fibrosis model mice. Kind of experiment: Action in renal interstitial fibrosis model mice due to unilateral ureteral ligation. It is filed as in vivo. The method, then: Unilateral ureteral ligation mice were prepared according to the reported method (Kidney Int. 54, 110-119, (1998)). Male BL6/C3H F1 mice (6-week-old, body weight 25 g-30 g) were anesthetized with pentobarbital and subjected to median incision. Thereafter, left ureter was detached and ligated at two points with silk thread. Two models were prepared, and 10 mg/kg of Y-27632 was orally administered (administration with drinking water) to one group for consecutive days from 2 days prior to the operation. Ten days postoperation, the kidney on the ureter ligation side was removed, fixed with 4% paraformaldehyde and prepared into specimen, for staining, which were subjected to Masson trichrome staining. The level of renal interstitial fibrosis was calculated by image analysis of the area ratio (interstitium cortex area ratio:%) of the portion stained blue (fibrosis) relative to the entire sight. (Results)

Each structure is given as a SMILES string.

Turning to `C[C@@H](N)[C@H]1CC[C@H](C(=O)Nc2ccncc2)CC1` [Compound Y-27632, (+)-trans-4-(1-aminoethyl)-1-(4-pyridylcarbamoyl)cyclohexane 2HCl.1H2O], the “level of renal interstitial fibrosis” value (10 mg/kg orally, against non-administration group, p < 0.01 (t-test)) is on record as “significantly suppressed”. In addition, the “portion stained blue (fibrosis) in Masson trichrome stained kidney specimen” value (FIG. 1B, Y-27632 administration group, 10 mg/kg orally, ten days postoperation) is recorded as “scarcely detected”. Also, the “Area ratio of interstitium cortex (Fibrosis): % (average value ± SD)” value (unilateral ureteral ligation mice, 10 mg/kg orally (with drinking water) from 2 days prior to operation, kidney removed ten days postoperation, Masson trichrome staining, image analysis, n = 4) was 7.31 ± 3.11 %.
